Results: the NIST ThermoML archive (doi:10.1021/je0340699)

Assay: molar heat capacity at saturation pressure
Details: Liquid, Large sample (1 g) DSC

CCOC(C)(C)C [2-ethoxy-2-methylpropane]
Details	molar heat capacity [J/K/mol]
277.14 K	211.4
281.17 K	213.3
283.15 K	214.2
285.16 K	215.2
287.15 K	216
289.16 K	216.9
291.14 K	217.7
293.14 K	218.5
295.15 K	219.3
297.14 K	220.1
299.15 K	220.9
301.14 K	221.7
303.16 K	222.6
305.14 K	223.3
307.15 K	224.2
309.14 K	225.3
311.15 K	225.9
313.14 K	226.7
315.16 K	227.6
317.14 K	228.6
319.15 K	229.5
321.14 K	230.1
323.15 K	231
325.14 K	231.7
327.16 K	232.6
329.15 K	233.3
331.16 K	234.2
333.15 K	235.1
335.16 K	235.9
338.16 K	237.1
339.14 K	237.4
341.15 K	238.1

CCC(C)(C)OC [2-methoxy-2-methylbutane]
Details	molar heat capacity [J/K/mol]
279.16 K	206.8
281.15 K	207.7
283.16 K	208.5
285.16 K	209.3
287.16 K	210.2
289.16 K	211
291.17 K	211.7
293.15 K	212.5
295.15 K	213.5
297.16 K	214.5
299.16 K	215.3
301.14 K	216.1
303.14 K	216.9
305.15 K	217.8
307.15 K	218.3
309.15 K	219.1
311.16 K	220.1
313.16 K	220.6
315.13 K	221.3
317.13 K	222.1
319.14 K	222.8
321.14 K	223.5
323.14 K	224.5
325.15 K	225
327.16 K	225.7
329.16 K	226.7
331.17 K	227.4
333.13 K	228.1
335.14 K	228.9
337.14 K	229.7
339.15 K	230.4
341.16 K	231
343.17 K	231.9
345.14 K	232.6
347.14 K	233.5
349.15 K	234.3
351.15 K	234.9
353.16 K	235.7
355.14 K	236.4

COC(C)(C)C [2-methoxy-2-methylpropane]
Details	molar heat capacity [J/K/mol]
277.15 K	180.9
279.15 K	181.4
281.16 K	182.3
283.15 K	183.1
285.15 K	183.8
287.14 K	184.4
289.16 K	185.3
291.15 K	186
293.16 K	186.8
295.15 K	187.7
297.14 K	188.3
299.14 K	189
301.16 K	189.7
303.16 K	190.4
305.15 K	191.1
307.15 K	191.8
309.16 K	192.6
311.16 K	193.2
313.15 K	193.9
315.15 K	194.6
317.14 K	195.2
319.16 K	196
321.15 K	196.5
323.15 K	197.3
325.15 K	198

CC(C)OC(C)C [diisopropyl ether]
Details	molar heat capacity [J/K/mol]
277.17 K	207.7
279.16 K	208.5
281.15 K	209.4
283.14 K	210.4
285.16 K	211.3
287.16 K	212.2
289.15 K	213.1
291.17 K	214
293.15 K	214.8
295.16 K	215.5
297.16 K	216.3
299.16 K	217.2
301.16 K	218
303.15 K	218.7
305.14 K	219.5
307.14 K	220.3
309.16 K	221
311.15 K	222
313.15 K	222.7
315.15 K	223.6
317.17 K	224.4
319.16 K	225.1
321.15 K	225.9
323.14 K	226.7
325.14 K	227.4
327.13 K	228.3
329.16 K	229
331.15 K	229.9
333.15 K	230.5
335.14 K	231.4
337.14 K	232.2
